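Interpolation was linear, between the two tested concentrations surrounding the appropriate level; five concentrations were tested over 48 hours in 96-well plates. Definition used: TGI = concentration required for complete inhibition of growth.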

Test in all cases: NCI tumour cell line growth inhibition, 48 h
For experiment [1], the system named is DLD-1 colon.
The subject of experiment [2] is DMS 114 small cell lung.
Experiment [3] relates to KM20L2 colon.
For experiment [4], the system named is M19-MEL melanoma.
Experiment [5] deals with P388 leukemia.
Experiment [6] has as its system P388/ADR leukemia.
The subject of experiment [7] is SN12K1 renal.
In experiment [8] the test system is SNB-78 CNS.
In experiment [9] the test system is XF 498 CNS.
In experiment [10] the test system is RXF-631 renal.

Consider `COc1cc(C2c3cc4c(cc3[C@@H](Nc3cccc(C(C)=O)c3)C3COC(=O)[C@H]23)OCO4)cc(OC)c1O` (stereo partly specified), for which the TGI in [1] was 4.93 µM; in experiment [2] it was 4.77 µM; in [3], over 23.3 µM; in experiment [4], over 57.7 µM; in experiment [5], 0.254 µM; in [6] it was 2.53 µM. The TGI is 4.61 µM in experiment [7], over 100 µM in experiment [8] and 14.9 µM in [9].
In the case of `CCOC(=O)/C=C(\C)c1ccc(OC)cc1`, the TGI in experiment [1], in experiment [2], in [3], in [8] and in [9] was over 100 µM each time.
As to `CC(C)(Br)C1(O)CCCN1C(=O)c1ccccc1` (stereo unspecified), the TGI in [1], in experiment [3], in [4], in [10] and in experiment [8] was over 100 µM throughout.
`COc1ccc(-c2cc(N3CCN(c4ccccc4)CC3)c(C#N)c(=O)o2)cc1`: the TGI was over 100 µM in experiment [1]; over 100 µM in experiment [2]; over 100 µM in experiment [3]; over 100 µM in [10]; 59 µM in [8]; 19.8 µM in experiment [9].
On to `COc1ccc(NC(=O)/C(=C/c2ccc(N(CCC#N)CCC#N)cc2)NC(=O)c2cc([N+](=O)[O-])ccc2Cl)cc1`, for which the TGI in experiment [1], in experiment [3], in experiment [4], in [10], in experiment [8] and in experiment [9] was over 100 µM each time.

The values are drawn from PubChem BioAssay (NCI).
